Reference: patent US9655870B2, “Homeopathic drug composition and methods of use thereof” (priority 2002, dated 2017)
Marks after values point to notes of the source that are not given here.

Key:
[1] = tested on: granzyme activity in T cells; settings: cited from earlier work
melanoma = settings: low doses, cited from earlier work
interferon gamma = settings: unless cells also exposed to high levels of exogenous stimulation (then normalization); cited from earlier work
[2] = tested on: patients with at least moderate fatigue; assay: Decreased fatigue study (Example 1); format: in vivo, human
HL60 tumor cells = settings: in vitro; mediated by increase in surface TNF-alpha; cited from earlier work
myeloma = myeloma model; sole agent; low doses; cited from earlier work
[3] = Single-dose toxicity study; settings: both sexes, mouse, in vivo, IV bolus, adult male and female CD-1 mice, read-out: maximally tolerated dose (MTD)
Experimental: (§1) Thus, the toxic doses levels of the compounds appear high (assuming a similar biochemical pathway and not correcting for a different surface-area-to-weight ratio), a dose of 9,975 mg (9.9 g) would not be lethal for a 75-kg person.

animals = assay: Repeated daily dose toxicity study (Dovetail Technologies, Inc.); format: in vivo
Experimental: as §1

[4] = tested on: patients with various complaints; assay: Clinical trials in patients with various complaints; format: in vivo, human
From the text: Safety: As of Mar. […] As of Jul. […] Many of those patients report improvements in their conditions (see below)

[5] = Acute toxicology studies (MidAtlantic Bio-Research); format: in vivo
Experimental: as §1

O=C(CCNC(=O)OCc1ccccc1)NCCS(=O)(=O)O [Taurox SB]
granzyme activity in T cells [1]: increased granzyme activity
toxicity (melanoma; melanoma and myeloma models): negligible toxicity
anti-tumor effect (melanoma; melanoma model, sole agent): potent anti-tumor effects
interferon gamma message (interferon gamma): up regulated
decrease of average fatigue score ([2]; eight patients, p=0.002): 43%
fatigue ([2]; patient 101, both doses (6X, 8X)): less fatigue
previously required daily naps ([2]; patient 101, upon initiation of 6X): became unnecessary
Fatigue (lower numbers indicate less fatigue) ([2]; patient 101, week 0): 28 pts
Fatigue (lower numbers indicate less fatigue) ([2]; patient 101, week 1): 27 pts
Fatigue (lower numbers indicate less fatigue) ([2]; patient 101, week 2): 24 pts
Fatigue (lower numbers indicate less fatigue) ([2]; patient 101, week 3): 24 pts
Fatigue (lower numbers indicate less fatigue) ([2]; patient 101, week 4): 27 pts
Fatigue (lower numbers indicate less fatigue) ([2]; patient 101, week 5): 26 pts
Fatigue (lower numbers indicate less fatigue) ([2]; patient 101, week 6): 20 pts
Fatigue (lower numbers indicate less fatigue) ([2]; patient 101, week 7): 16 pts
Fatigue (lower numbers indicate less fatigue) ([2]; patient 101, week 8): 16 pts
Fatigue (lower numbers indicate less fatigue) ([2]; patient 101, week 9): 20 pts
Fatigue (lower numbers indicate less fatigue) ([2]; patient 101, week 10): 14 pts
Fatigue (lower numbers indicate less fatigue) ([2]; patient 101, week 11): 14 pts
Fatigue (lower numbers indicate less fatigue) ([2]; patient 101, week 12): 19 pts
Fatigue (lower numbers indicate less fatigue) ([2]; patient 101, week 13): 19 pts
Fatigue (lower numbers indicate less fatigue) ([2]; patient 101, week 14): 20 pts
Fatigue (lower numbers indicate less fatigue) ([2]; patient 101, week 16): 21 pts
Fatigue (lower numbers indicate less fatigue) ([2]; patient 101, week 17): 19 pts
Fatigue (lower numbers indicate less fatigue) ([2]; patient 101, week 18): 19 pts
Fatigue (lower numbers indicate less fatigue) ([2]; patient 101, week 19): 17 pts
Fatigue (lower numbers indicate less fatigue) ([2]; patient 101, week 20): 15 pts
Fatigue (lower numbers indicate less fatigue) ([2]; patient 101, week 21): 16 pts
Fatigue (lower numbers indicate less fatigue) ([2]; patient 101, week 22): 16 pts
Fatigue (lower numbers indicate less fatigue) ([2]; patient 102, week 0): 41 pts
Fatigue (lower numbers indicate less fatigue) ([2]; patient 102, week 1): 48 pts
Fatigue (lower numbers indicate less fatigue) ([2]; patient 102, week 2): 47 pts
Fatigue (lower numbers indicate less fatigue) ([2]; patient 102, week 3): 48 pts
Fatigue (lower numbers indicate less fatigue) ([2]; patient 102, week 4): 40 pts
Fatigue (lower numbers indicate less fatigue) ([2]; patient 102, week 5): 35 pts
Fatigue (lower numbers indicate less fatigue) ([2]; patient 102, week 6): 48 pts
Fatigue (lower numbers indicate less fatigue) ([2]; patient 102, week 7): 48 pts
Fatigue (lower numbers indicate less fatigue) ([2]; patient 102, week 8): 48 pts
Fatigue (lower numbers indicate less fatigue) ([2]; patient 102, week 9): 46 pts
Fatigue (lower numbers indicate less fatigue) ([2]; patient 102, week 10): 37 pts
Fatigue (lower numbers indicate less fatigue) ([2]; patient 102, week 11): 35 pts
Fatigue (lower numbers indicate less fatigue) ([2]; patient 102, week 12): 22 pts
Fatigue (lower numbers indicate less fatigue) ([2]; patient 102, week 13): 22 pts
Fatigue (lower numbers indicate less fatigue) ([2]; patient 102, week 14): 22 pts
Fatigue (lower numbers indicate less fatigue) ([2]; patient 103, week 0): 37 pts
Fatigue (lower numbers indicate less fatigue) ([2]; patient 103, week 1): 31 pts
Fatigue (lower numbers indicate less fatigue) ([2]; patient 103, week 3): 24 pts
Fatigue (lower numbers indicate less fatigue) ([2]; patient 103, week 5): 21.5 pts
Fatigue (lower numbers indicate less fatigue) ([2]; patient 103, week 7): 9 pts
Fatigue (lower numbers indicate less fatigue) ([2]; patient 201, week 0): 29 pts
Fatigue (lower numbers indicate less fatigue) ([2]; patient 201, week 1): 39 pts
Fatigue (lower numbers indicate less fatigue) ([2]; patient 201, week 2): 36 pts
Fatigue (lower numbers indicate less fatigue) ([2]; patient 201, week 3): 21 pts
Fatigue (lower numbers indicate less fatigue) ([2]; patient 201, week 4): 23 pts
energy and sleep ([2]; patient 202): greater energy and better sleep
Fatigue (lower numbers indicate less fatigue) ([2]; patient 202, week 0): 30 pts
Fatigue (lower numbers indicate less fatigue) ([2]; patient 202, week 1): 39 pts
Fatigue (lower numbers indicate less fatigue) ([2]; patient 202, week 2): 25 pts
Fatigue (lower numbers indicate less fatigue) ([2]; patient 202, week 5): 17 pts
Fatigue (lower numbers indicate less fatigue) ([2]; patient 202, week 6): 10* pts
fatigue ([2]; patient 401, 8X dose): less fatigue
Fatigue (lower numbers indicate less fatigue) ([2]; patient 401, week 0): 25 pts
Fatigue (lower numbers indicate less fatigue) ([2]; patient 401, week 1): 20 pts
Fatigue (lower numbers indicate less fatigue) ([2]; patient 401, week 2): 29 pts
Fatigue (lower numbers indicate less fatigue) ([2]; patient 401, week 3): 21 pts
Fatigue (lower numbers indicate less fatigue) ([2]; patient 401, week 4): 9 pts
Fatigue (lower numbers indicate less fatigue) ([2]; patient 401, week 5): 8 pts
fatigue ([2]; patient 507): less fatigue
Fatigue (lower numbers indicate less fatigue) ([2]; patient 507, week 0): 33 pts
Fatigue (lower numbers indicate less fatigue) ([2]; patient 507, week 1): 32.5 pts
Fatigue (lower numbers indicate less fatigue) ([2]; patient 507, week 2): 31 pts
fatigue ([2]; patient 703): less fatigue
Fatigue (lower numbers indicate less fatigue) ([2]; patient 703, week 0): 48 pts
Fatigue (lower numbers indicate less fatigue) ([2]; patient 703, week 1): 44 pts
Fatigue (lower numbers indicate less fatigue) ([2]; patient 703, week 2): 44 pts
Fatigue (lower numbers indicate less fatigue) ([2]; patient 703, week 3): 44 pts
Fatigue (lower numbers indicate less fatigue) ([2]; patient 703, week 4): 44 pts
Fatigue (lower numbers indicate less fatigue) ([2]; patient 703, week 5): 41 pts
Fatigue (lower numbers indicate less fatigue) ([2]; patient 703, week 6): 37 pts
Fatigue (lower numbers indicate less fatigue) ([2]; patient 703, week 7): 41 pts
Fatigue (lower numbers indicate less fatigue) ([2]; patient 703, week 8): 41 pts
Fatigue (lower numbers indicate less fatigue) ([2]; patient 703, week 9): 32.5 pts
Fatigue (lower numbers indicate less fatigue) ([2]; patient 703, week 10): 39.5 pts
Fatigue (lower numbers indicate less fatigue) ([2]; patient 703, week 11): 39.5 pts
Fatigue (lower numbers indicate less fatigue) ([2]; patient 703, week 12): 39.5 pts
Fatigue (lower numbers indicate less fatigue) ([2]; patient 703, week 13): 39.5 pts
fatigue ([2]; patient 706 (second HCV patient)): decreased fatigue
fatigue, all eight patients of Table 2 ([2]; patients entering with at least moderate fatigue (24 pts or higher)): reduced fatigue
killing of HL60 tumor cells (HL60 tumor cells): able to effect killing of HL60 tumor cells
anti-tumor effect (myeloma): potent anti-tumor effects
MTD [3]: ~150 mg/kg
morbidity/mortality (animals; 400 ug/kg daily for 9 days, 14-day post-administration period): no morbidity/mortality
weight gain (animals; 400 ug/kg daily for 9 days, 14-day post-administration period, compared to saline-injected controls): all gained the appropriate amount of weight
gross necropsies (animals; 400 ug/kg daily for 9 days, following euthanasia): no abnormal findings
toxic side effects (animals; oral daily doses of 400 ug/kg for 9 days): no toxic side effects were observed
toxic side effects (animals; subcutaneous daily doses of 400 ug/kg for 9 days): no toxic side effects were observed
severe adverse effects ([4]; over 40 patients, 1-6 months, 1-2 drops of 8× or 6× daily): without any severe adverse effects
lymphocyte count ([4]; patient 102 (lymphocytopenia), 8X dose): improved
energy, well-being and pain ([4]; patient 102, 8X dose): improvements in energy, an overall feeling of well-being and less pain
appetite and weight ([4]; patient 401 (lung cancer, chemotherapy), 8X dose): able to maintain their appetite and weight
Irritable Bowel Syndrome (IBS) ([4]; patient 507): improvement in IBS
PMS ([4]; patient 702, 8X dose): less severe PMS
ability to work ([4]; patient 702, 8X dose): improved ability to work
discomfort from uterine fibroids ([4]; patient 702, 8X dose): less discomfort from the fibroids
Irritable Bowel Syndrome (IBS) ([4]; patient 703): complete resolution of IBS
dose at which an acute lethal response was demonstrated ([5]; acute toxicology): exceeding 133 mg/kg
proposed dose lower than the toxic dose ([5]; animal toxicity studies): over 1 million
dose that would not be lethal for a 75-kg person ([5]; extrapolated from animal data, not corrected for surface-area-to-weight ratio): 9,975 mg
